Like-named read-outs stand apart in the source and are kept apart here.
What was measured:
[1] = molecular target: FLNA pentapeptide of SEQ ID NO: 1 (Bn-VAKGL) (Homo sapiens, UniProt P21333); experiment: FITC-NLX-based FLNA screening assay (inhibition of FITC-naloxone binding to Bn-VAKGL on streptavidin plates); conditions: 10 nM FITC-NLX
mu opiate receptor (MOR) = experiment: MOR agonist activity using [35S]GTPγS binding assay in striatal membranes; type: biochemical; conditions: for MOR agonist activity ([35S]GTPγS binding), FLNA-Binding Compound as Agonist 0.1 μM: 0.1 μM compound; for % DAMGO (0.1 μM): 0.1 μM compound relative to DAMGO; for MOR agonist activity ([35S]GTPγS binding), FLNA-Binding Compound as Agonist 1 μM: 1 μM compound; for MOR agonist activity ([35S]GTPγS binding), FLNA-Binding Compound as Agonist 1 μM + BFNA: 1 μM compound + 1 μM β-funaltrexamine; for % DAMGO + BFNA: 1 μM compound + BFNA relative to DAMGO + BFNA; for % DAMGO (1 μM): 1 μM compound relative to DAMGO
Outline: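 Striatal membranes (200 μg) were preincubated 5 min at 30 °C in HEPES pH 7.5 with 100 mM NaCl, 1 mM MgCl2 and 0.5 nM [35S]GTPγS, then 5 min more with 0.1–10 μM compound. Gαo was immunoprecipitated and bound radioactivity counted by scintillation.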

[2] = FLNA-binding compound 0.01 μM, read-out: Percent Binding Inhibition
[3] = FLNA-binding compound 0.1 μM, read-out: Percent Binding Inhibition
[4] = FLNA-binding compound 1 μM, read-out: Percent Binding Inhibition
[5] = read-out: Percent Binding Inhibition, FLNA-binding compound 0.01 μM
[6] = read-out: Percent Binding Inhibition, FLNA-binding compound 0.1 μM
[7] = read-out: Percent Binding Inhibition, FLNA-binding compound 1 μM

Row | SMILES | inhibition at 0.01 µM [1, 2] [%] | inhibition at 0.1 µM [1, 3] [%] | inhibition at 1 µM [1, 4] [%] | MOR agonist activity ([35S]GTPγS binding), FLNA-Binding Compound as Agonist 0.1 μM (mu opiate receptor (MOR)) [%] | % DAMGO (0.1 μM) (mu opiate receptor (MOR)) [%] | MOR agonist activity ([35S]GTPγS binding), FLNA-Binding Compound as Agonist 1 μM (mu opiate receptor (MOR)) [%] | MOR agonist activity ([35S]GTPγS binding), FLNA-Binding Compound as Agonist 1 μM + BFNA (mu opiate receptor (MOR)) [%] | % DAMGO + BFNA (mu opiate receptor (MOR)) [%] | % DAMGO (1 μM) (mu opiate receptor (MOR)) [%] | inhibition at 0.01 µM [1, 5] [%] | inhibition at 0.1 µM [1, 6] [%] | inhibition at 1 µM [1, 7] [%]
1 | CC1CN(CC(O)COc2ccc(Cl)cc2)CC(C)O1 (stereo not drawn) [Compound A0047] | 40.9 | 42.9 | 44.5 | 233.0 | 118.8 | 255.0 | 116.5 | 157.6 | 92.4 |  |  | 
2 | COc1ccc(OCC(O)CN2CC(C)OC(C)C2)cc1 (stereo not drawn) [Compound A0048] |  |  |  | 233.7 | 119.1 | 302.9 | 167.2 | 226.3 | 109.7 | 38.5 | 44 | 46.9
3 | CN(C)c1cccc(OCC(O)CN2CCc3ccccc3C2)c1 (stereo not drawn) [Compound A0050] | 42.9 | 49.8 | 52.1 | 151.0 | 77.0 | 189.3 | 81.0 | 109.6 | 68.6 |  |  | 
4 | CC1CN(CC(O)COc2cccc(C(F)(F)F)c2)CC(C)O1 (stereo not drawn) [Compound A0051] | 45.9 | 45.4 | 52.1 | 290.4 | 148.0 | 386.6 | 211.6 | 286.3 | 140.1 |  |  | 
5 | OC(COc1cccc(C(F)(F)F)c1)CN1CCc2ccccc2C1 (stereo not drawn) [Compound A0054] | 28.7 | 35.8 | 41.4 | 74.9 | 44.4 | 159.2 | 114.1 | 348.9 | 63.9 |  |  | 
6 | OC(COc1cccc(F)c1)CN1CCc2ccccc2C1 (stereo not drawn) [Compound A0055] | 28.1 | 32.4 | 41.8 | 89.8 | 53.2 | 195.2 | 33.5 | 102.4 | 78.4 |  |  | 
7 | CC1CCC(C(C)C)C(OCC(O)CN2CCC(=O)C(C)C2)C1 (stereo not drawn) [Compound A0056] |  |  |  | 115.6 | 74.1 | 129.6 | 17.4 | 43.6 | 56.2 | 34.4 | 40.9 | 41.3

Reference: US10363239B2, “Method for inhibiting growth of cancer cells” (Pain Therapeutics, Inc., priority 2013, dated 2019)
